Reference: publication PMC9738632 (Molecules, 2022)
Read-outs that look alike come from different tables or passages of the source.

Tests used:
DENV-2: 00St22A = experiment: Plaque reduction neutralization test (PRNT), DENV-2; format: cell-based, Dengue virus; conditions: DENV-2, BHK-21 cells; for IC50: Dengue virus, DENV2, read-out: PRNT50 DENV-2 (concentration that reduces plaque number by 50%)
Source text: (§1) The dengue viruses used in this study were DENV-1:VN/2017/D7709, DENV-2: 00St22A, DENV-3: SMLC50, DENV-4: SLMC318. The virus strains were supplied by the Vietnam National Institute of Hygiene and Epidemiology. The four above serotypes of the Dengue virus were propagated in BHK-21 cell lines (provided by Nagasaki University, Japan) in Eagle’s Minimum Essential Medium (EMEM; Gibco Thermo Fischer Scientific, Waltham, MA, USA) with 2% Fetal Bovine Serum (FBS; Sigma Aldrich, St. Louis, MO, USA) at 37 °C under 5% CO2 atmosphere for 5–7 days. The BHK-21 cells were cultured using 10% FBS EMEM medium.
(§2) EMEM (1 mL) containing FBS (2%) was added into each of 24-well plates (with a concentration of […] –1.0 × 10^4 cells/well). The well plates were shaken to induce the formation of identical cell layers. Afterwards, the wells were incubated at 37 °C under 5% CO2 atmosphere overnight until the cell concentration reached at 70–90%. In case this concentration was not yet reached, the incubation was allowed to continue for a further 1 to 2 days.
(§3) The compounds 4–8 and 23 were totally dissolved in EMEM with a concentration of 500 μg/mL, which was serially diluted with step 2 with EMEM containing 2% FBS; the solutions of compounds were kept at 2–8 °C. The viruses were used at the dose of 2.5 × 10^3 PFU/mL in EMEM containing 2% FBS. The virus (100 μL) was added to all the diluted samples. The virus-compounds mixtures were incubated at 37 °C under 5% CO2 atmosphere for 60 min; afterwards, the medium in all wells of the plates was removed. The virus-compounds mixture (50 μL) was added into the wells, according to the designed experimental test concentration/dilution.
(§4) The viral medium was used as the negative control. EMEM (2 mL) containing methyl cellulose (1%) was added and re-incubated at 37 °C under 5% CO2 atmosphere for 4–6 days. The typical DENV-1 and DENV-4-induced CPE appeared after 4 days of incubation, while the durations for DENV-2 and DENV-3 were 5 and 6 days, respectively. These times of incubation allowed the formation of the plaques to be visually observable and countable. The plaques can be observed under a microscope or by eyes. The cells were fixed with formalin (3.7%) for 1 h at room temperature, washed with water, and stained with crystal violet (0.25%) for 1 h at room temperature. Finally, the plaques were counted.

DENV-3: SMLC50 = experiment: Plaque reduction neutralization test (PRNT), DENV-3; format: cell-based, Dengue virus; conditions: DENV-3, BHK-21 cells; for IC50: Dengue virus, DENV3, read-out: PRNT50 DENV-3 (concentration that reduces plaque number by 50%)
Source text: as §1, §2, §3, §4

[1] = Cytotoxic assay (MTT) against BHK-21 cells; format: cell-based; conditions: hamster, read-out: CC50 (50% cytotoxic concentration)
Protocol: The cytotoxic evaluation of the extracts was carried out against the BHK-21 cells. Under cultural conditions of EMEM with FBS (10%), the assaying cells were grown in 96-well bottom-transparent plates at a density of 6 × 10^4 cells/mL per well. The compounds that had been dissolved in dimethyl sulfoxide (DMSO) with six different concentrations (500, 250, 125, 62.5, 31.25, 15.625 μg/mL) were added into each well; each concentration was used in triplicate. After incubation at 37 °C under 5% CO2 atmosphere for 48 h, MTT (0.5 mg/mL) was added into each well; afterwards, 4 h incubation was carried out. The liquid in the wells was removed, and DMSO ([…]) was added to each well. The optical absorbance was recorded on a microplate reader at λ = 570 nm (Genious Tecan, Grödig, […]). The optical density in the wells was plotted against the logarithm of compound concentration, and 50% cytotoxic concentration (CC50), the compound concentration decreasing the optical density twice comparing to control wells, was calculated using the appropriate software (Table Curve 2Dv4.USA).

DENV-1:VN/2017/D7709 = experiment: Plaque reduction neutralization test (PRNT), DENV-1; format: cell-based, Dengue virus; conditions: DENV-1, BHK-21 cells; for IC50: Dengue virus, DENV1, read-out: PRNT50 DENV-1 (concentration that reduces plaque number by 50%)
Source text: as §1, §2, §3, §4

DENV-4: SLMC318 = experiment: Plaque reduction neutralization test (PRNT), DENV-4; format: cell-based, Dengue virus; conditions: DENV-4, BHK-21 cells; for IC50: Dengue virus, DENV4, read-out: PRNT50 DENV-4 (concentration that reduces plaque number by 50%)
Source text: as §1, §2, §3, §4

[2] = Cytotoxicity assay (MTT) in MDCK cells; format: cell-based, Canine; conditions: dog, read-out: CC50 (50% cytotoxic concentration)
Protocol: Initially, maximum non-toxic concentrations were determined for compounds 1–22 to exclude their non-specific antiviral activity. The in vitro cytotoxicity of the tested compounds (CC50) was studied in the normal Madin-Darby Canine Kidney cell line (MDCK) by the MTT ((3-(4,5-dimethylthiazol-2-yl)-2,5-diphenyltetrazolium bromide) test. The highest concentration tested was […]. The cytotoxicity of oseltamivir carboxylate and rimantadine was also evaluated as these have been used as reference drugs in antiviral tests. Compounds at concentration that kills no more than 50% of cells (CC50) were used for further investigation of antiviral activity.
The MDCK cells were seeded onto 96-well culture plates (10^4 cells per well) and incubated at 36 °C in 5% CO2 until continuous monolayer formation. To assess the toxicity of the compounds, a series of their 3-fold dilutions, at concentrations of 300 to 3.7 μg/mL in Eagle’s Minimal Essential Medium (MEM), were prepared. The dilutions were added to the wells of the plates. The cells were incubated for 72 h at 36 °C in a CO2 incubator under 5% CO2. Further, a microtetrazolium (MTT) assay was performed on the 96-well plates. The cells were washed 2 times with saline (0.9% NaCl), and 100 μL/well of MTT solution [3-(4,5-dimethylthiazol-2-yl)-2,5-diphenyltetrazolium bromide] at a concentration of […] in MEM was added. The plates were incubated for 1 h at 36 °C, the liquid was removed, and dimethylsulfoxide (DMSO) (0.1 mL per well) was added. The optical density (OD) of the cells was measured on a Thermo Multiskan FC spectrophotometer (Thermo Fisher Scientific, Waltham, MA, USA) at a wavelength of 540 nm. Based on the obtained data, the CC50, the concentration of the compound that destroys 50% of the cells in the culture, was calculated for each specimen.

[3] = tested on: influenza virus A/Puerto Rico/8/34 (H1N1); experiment: organism not typed; format: cell-based; conditions: for IC50: read-out: IC50 (50% inhibitory concentration)
Flu A H1N1 strain = tested on: Flu A H1N1 strain; set-up: method as in doi:10.1177/1934578X1801301008; conditions: read-out: IC50 against Flu A H1N1 strain; cited from earlier work
MDCK cells = tested on: MDCK cells; set-up: method as in earlier work; conditions: ref 40 (table), read-out: CC50 (50% cytotoxic concentration); cited from earlier work
[4] = tested on: influenza virus A/Puerto Rico/8/34 (H1N1); set-up: method as in earlier work; conditions: ref 40 (table), read-out: IC50 (50% inhibitory concentration); cited from earlier work
influenza virus A H7N1 = conditions: cited from earlier work

| Molecule | melting point [°C] | CC50 at 72 h [2] [µM] | SI (selectivity index, CC50/IC50) [3] | IC50 ([3]; MDCK, 72 h) [µM] | further results |
| --- | --- | --- | --- | --- | --- |
| CC1(C)CC[C@]2(CO)CC[C@]3(C)C(NCCC4[C@@]5(C)CC[C@H](O)C(C)(C)C5CC[C@]43C)C2C1 (stereo partly shown) [Compound 23, C-azepano-erythrodiol] |  |  |  |  | IC50 (DENV-2: 00St22A): 68 ± 3 µM; IC50 (DENV-3: SMLC50): 228 ± 16 µM; CC50 at 48 h [1]: > 544 µM; IC50 (DENV-1:VN/2017/D7709): 107 ± 7 µM; IC50 (DENV-4: SLMC318): 108 ± 5 µM |
| CC1(C)CC[C@]2(C(=O)N3CCCN(CC#N)CC3)CC[C@]3(C)C(=CCC4[C@@]5(C)CCC(=O)C(C)(C)C5CC[C@]43C)C2C1 (stereo partly shown) [Compound 11, N-(3-Oxo-olean-12(13)-en-28-oyl)-4′-cyanomethyl-homopiperazine Amide] | 191 | > 522 | >12 | 45 ± 6 |  |
| CC1(C)CC[C@]2(C(=O)NCCN3CCNCC3)CC[C@]3(C)C(=CCC4[C@@]5(C)CCC(=O)C(C)(C)C5CC[C@]43C)C2C1 (stereo partly shown) [Compound 6, N-(3-Oxo-olean-12(13)-en-28-oyl)-aminoethylpiperazine Amide] | 175 | 442 ± 31 | 5 | 82 ± 10 | IC50 (DENV-2: 00St22A): 86 ± 5 µM; IC50 (DENV-3: SMLC50): > 111 µM; CC50 at 48 h [1]: 111 ± 8 µM; IC50 (DENV-1:VN/2017/D7709): 67 ± 4 µM; IC50 (DENV-4: SLMC318): 110 ± 8 µM |
| CCOC(=O)CNC(=O)CN(Cc1ccccc1)C(=O)[C@]12CCC(C)(C)CC1C1=CCC3[C@@]4(C)Cc5c([nH]c6ccccc56)C(C)(C)C4CC[C@@]3(C)[C@]1(C)CC2 (stereo partly shown) [Compound 10, Ethyl N-Benzyl-N-2,3-indolo-olean-12-en-28-glycylglycinate] | 197 to 199 | 121 ± 9 | 3 | 39 ± 4 |  |
| CCOC(=O)CNC(=O)CN(Cc1ccccc1)C(=O)[C@]12CCC(C)(C)CC1C1=CCC3[C@@]4(C)CCC(=O)C(C)(C)C4CC[C@@]3(C)[C@]1(C)CC2 (stereo partly shown) [Compound 9, Ethyl N-Benzyl-N-3-oxo-olean-12-en-28-glycylglycinate] | 245 to 247 | > 437 | >11 | 41 ± 5 |  |
| CC1(C)CC[C@]2(C(=O)N3CCCNCC3)CC[C@]3(C)C(=CCC4[C@@]5(C)CCC(=O)C(C)(C)C5CC[C@]43C)C2C1 (stereo partly shown) [Compound 2, N-(3-Oxo-olean-12(13)-en-28-oyl)-homopiperazine Amide] | 174 | > 560 | >27 | 20 to 21 | IC50 [3]: 21 ± 3 µM |
| COC(=O)[C@]12CCC(C)(C)CC1C1=CCC3[C@@]4(C)CC[C@H](NC(=O)c5ccccc5C(=O)O)C(C)(C)C4CC[C@@]3(C)[C@]1(C)CC2 (stereo partly drawn) [Compound 22, Methyl 3β-N-phthalyl-olean-12(13)-en-28-oate] | 240 | > 486 | >42 | 12 ± 2 |  |
| Lupane 3,4-seco-3,28-bis-methylpiperazine-amide |  |  |  |  | IC50 (Flu A H1N1 strain): 27 µM |
| CC(N)C12CC3CC(CC(C3)C1)C2 (stereo not shown) [Rimantadine, reference compound] |  | 344 ± 19 | 6 |  |  |
| CC1(C)CC[C@]2(C(=O)NCCCNCCCCNCCCN)CC[C@]3(C)C(=CCC4[C@@]5(C)Cc6c([nH]c7ccccc67)C(C)(C)C5CC[C@]43C)C2C1 (stereo partly shown) [Compound 8, N-([3,2b]-Indolo-olean-12(13)-en-28-oyl)-spermine Amide] | 138 | > 140 | >5 | 27 ± 4 | PRNT50 DENV-2 (concentration that reduces plaque number by 50%) (DENV-2: 00St22A): inactive; IC50 (DENV-2: 00St22A): 347 ± 21 µM; PRNT50 DENV-3 (concentration that reduces plaque number by 50%) (DENV-3: SMLC50): inactive; IC50 (DENV-3: SMLC50): > 351 µM; CC50 at 48 h [1]: > 351 µM; PRNT50 DENV-1 (concentration that reduces plaque number by 50%) (DENV-1:VN/2017/D7709): inactive; IC50 (DENV-1:VN/2017/D7709): 336 ± 22 µM; PRNT50 DENV-4 (concentration that reduces plaque number by 50%) (DENV-4: SLMC318): inactive; IC50 (DENV-4: SLMC318): 336 ± 28 µM |
| COC(=O)[C@]12CCC(C)(C)CC1C1=CCC3[C@@]4(C)CC[C@H](N)C(C)(C)C4CC[C@@]3(C)[C@]1(C)CC2 (stereo partly drawn) [Compound 21, Methyl 3β-amino-oleanoate] |  |  |  |  | CC50 (MDCK cells): 18 µM; IC50 [4]: 7.9 µM |
| CCC(CC)O[C@@H]1C=C(C(=O)O)C[C@H](N)[C@H]1NC(C)=O [Oseltamivir carboxylate, reference compound] |  | > 200 | >667 | 0.3 ± 0.01 |  |
| CC1(C)CC[C@]2(C(=O)N3CCCNCC3)CC[C@]3(C)C(=CCC4[C@@]5(C)Cc6c([nH]c7ccccc67)C(C)(C)C5CC[C@]43C)C2C1 (stereo partly shown) [Compound 7, N-([3,2b]-Indolo-olean-12(13)-en-28-oyl)-homopiperazine Amide] | > 200 |  |  |  | IC50 (DENV-2: 00St22A): 105 ± 7 µM; IC50 (DENV-3: SMLC50): > 410 µM; CC50 at 48 h [1]: > 410 µM; IC50 (DENV-1:VN/2017/D7709): 164 ± 11 µM; IC50 (DENV-4: SLMC318): 371 ± 16 µM |
| betulonic acid L-leucine-amide |  |  |  |  | suppression of the influenza virus A H7N1 (influenza virus A H7N1): 90%; EC50 (influenza virus A H7N1; influenza virus A H7N1): 2.17 µM |
